Source: US20260232767A1, “INTERLEUKIN-23 RECEPTOR ANTAGONIST PEPTIDES FOR USE IN THE TREATMENT OF PSORIASIS” (Janssen Pharmaceutica NV, priority 2023, published 2026)

Test system: subjects with moderate-to-severe plaque psoriasis
Assay: PASI response, Example 1 16-week dose-ranging study
Type: in vivo, human
Details: for Subjects achieving PASI 75: Week 4
Procedure: The Psoriasis Area and Severity Index (PASI) is a system used for assessing and grading the severity of psoriatic lesions and their response to therapy. In the PASI system, the body is divided into four regions: the head, trunk, upper extremities, and lower extremities. Each of these areas is assessed and scored separately for erythema, induration, and scaling, which are each rated on a scale of 0 to 4 and extent of involvement on a scale of 0 to 6. The PASI produces a numeric score (a “PASI score”) that can range from 0 to 72. A higher score indicates more severe disease.
This was a randomized, double-blind, placebo-controlled, dose-ranging, parallel group, multicenter, interventional study in subjects with moderate-to-severe plaque psoriasis. A target of 240 subjects were enrolled in this study with 40 subjects planned per intervention group.
Clinician-reported outcomes including Psoriasis Area and Severity Index (PASI), Body Surface Area (BSA), Investigator's Global Assessment (IGA), Nail Psoriasis Area and Severity Index (NAPSI), Fingernail Physician's Global Assessment (f-PGA), Static Physician's Global Assessment of Genitalia (s-PGA-G), Physician's Global Assessment of Hands and/or Feet (hf-PGA), and Scalp Specific Investigator Global Assessment (ss-IGA) were obtained at Week 0, 8, and 16. PASI and IGA were also obtained at Weeks 1, 2, 4, and 12, and at Week 20, four weeks after the administration of the tablets has stopped.
The primary efficacy endpoint was the proportion of participants achieving a PASI 75 response at Week 16, defined as at least a 75% reduction from baseline in PASI total score.
For the primary analysis, composite strategy (non-responder imputation) was applied to address intercurrent event #1 (Discontinuation of study intervention due to lack of efficacy or due to an AE of worsening of psoriasis) and #2 (initiation of a protocol-prohibited medication or therapy that could improve psoriasis); and treatment policy strategy (observed data) was applied to intercurrent event #3 (Discontinuation of study intervention due to other reasons). Participants with missing data after application of ICEs are also considered as non-responders.
In addition to the response analysis, pairwise comparisons of each treatment group versus the placebo group were performed for the primary endpoint of PASI 75 at Week 16. Pairwise comparisons were not adjusted for multiplicity. The Cochran-Mantel-Haenszel chi-square statistic stratified by baseline weight category (≤90 kg, >90 kg) at a 2-sided significance level of 0.05 was used (Table 2).

[1] = 25 mg QD, Week 16, trough plasma conc ≥Q3
[2] = 50 mg QD, Week 16, peak plasma conc. <Q1, N=2
[3] = 50 mg QD, Week 16, peak plasma conc. Q1 to <Q2, N=2
[4] = 50 mg QD, Week 16, peak plasma conc. Q2 to <Q3, N=2
[5] = 50 mg QD, Week 16, peak plasma conc. ≥Q3, N=2
[6] = 50 mg QD, Week 16, trough plasma conc <Q1
[7] = 50 mg QD, Week 16, trough plasma conc Q1 to <Q2
[8] = 50 mg QD, Week 16, trough plasma conc Q2 to <Q3
[9] = 50 mg QD, Week 16, trough plasma conc ≥Q3
[10] = 100 mg BID, Week 16, peak plasma conc. <Q1, N=2
[11] = 100 mg BID, Week 16, peak plasma conc. Q1 to <Q2, N=3
[12] = 100 mg BID, Week 16, peak plasma conc. Q2 to <Q3, N=2
[13] = 100 mg BID, Week 16, peak plasma conc. ≥Q3, N=3
[14] = 100 mg BID, Week 16, trough plasma conc <Q1

CC(=O)NCCCC[C@@H]1NC(=O)[C@H](Cc2c[nH]c3c(C)cccc23)NC(=O)[C@H]([C@@H](C)O)NC(=O)[C@H](CC(N)=O)NC(=O)[C@@H](NC(C)=O)C(C)(C)SSC(C)(C)[C@@H](C(=O)N[C@@H](Cc2ccc(OCCN)cc2)C(=O)N[C@@H](Cc2ccc3ccccc3c2)C(=O)NC2(C(=O)N[C@@H](CCC(=O)O)C(=O)N[C@@H](CC(N)=O)C(=O)N[C@@H](Cc3cccnc3)C(=O)N(C)CC(N)=O)CCOCC2)NC1=O [IL-23 receptor antagonist peptide, Ac-[Pen]*-N-T-[W(7-Me)]-[Lys(Ac)]-[Pen]*-Phe[4-(2-aminoethoxy)]-[2-Nal]-[THP]-E-N-[3-Pal]-Sarc-NH2 (*[Pen]-[Pen]* formdisulfidebond)] was tested, and the “PASI 100% Improvement, subjects” value [1] was 1 (16.7%), the “PASI ≥75% Improvement, subjects” value [1] was 3 (50.0%) and the “PASI ≥90% Improvement, subjects” value [1] was 1 (16.7%). The “Subjects achieving PASI 75” value (50 mg QD) was 16.3%, the “PASI 75 treatment difference vs placebo” value (50 mg QD, Week 16) was 48.8% and the “PASI 90 treatment difference vs placebo” value (50 mg QD, Week 16) was 48.8% (33.3%,. The “PASI 100 treatment difference vs placebo” value (50 mg QD, Week 16) was 25.6% (12.7%,, the “Subjects achieving PASI 90” value (50 mg QD, Week 16) was 22 (51.2%) and the “Subjects achieving PASI 100” value (50 mg QD, Week 16) was 11 (25.6%). For the same compound, the “PASI 75, %” value (50 mg QD, Week 16, N=43) was 58.1%, the “PASI 90, %” value (50 mg QD, Week 16, N=43) was 51.2% and the “PASI 100, %” value (50 mg QD, Week 16, N=43) was 25.6%. For the same compound, the “PASI 100% Improvement, n subjects” value [2] was 0, the “PASI ≥75% Improvement, % subjects” value [2] was “(50.0%)” and the “PASI ≥75% Improvement, n subjects” value [2] was 1. For the same compound, the “PASI ≥90% Improvement, n subjects” value [2] was 0, the “PASI 100% Improvement, % subjects” value [3] was “(50.0%)” and the “PASI 100% Improvement, n subjects” value [3] was 1. The “PASI ≥75% Improvement, % subjects” value [3] was “(100.0%)”, the “PASI ≥75% Improvement, n subjects” value [3] was 2 and the “PASI ≥90% Improvement, % subjects” value [3] was “(100.0%)”. The “PASI ≥90% Improvement, n subjects” value [3] was 2, the “PASI 100% Improvement, n subjects” value [4] was 0 and the “PASI ≥75% Improvement, % subjects” value [4] was “(50.0%)”. The “PASI ≥75% Improvement, n subjects” value [4] was 1, the “PASI ≥90% Improvement, % subjects” value [4] was “(50.0%)” and the “PASI ≥90% Improvement, n subjects” value [4] was 1. For the same compound, the “PASI 100% Improvement, n subjects” value [5] was 0, the “PASI ≥75% Improvement, % subjects” value [5] was “(100.0%)” and the “PASI ≥75% Improvement, n subjects” value [5] was 2. For the same compound, the “PASI ≥90% Improvement, % subjects” value [5] was “(100.0%)”, the “PASI ≥90% Improvement, n subjects” value [5] was 2 and the “PASI 100% Improvement, subjects” value [6] was 1 (20.0%). The “PASI ≥75% Improvement, subjects” value [6] was 2 (40.0%), the “PASI ≥90% Improvement, subjects” value [6] was 1 (20.0%) and the “PASI 100% Improvement, subjects” value [7] was 2 (40.0%). The “PASI ≥75% Improvement, subjects” value [7] was 3 (60.0%), the “PASI ≥90% Improvement, subjects” value [7] was 3 (60.0%) and the “PASI 100% Improvement, subjects” value [8] was 2 (40.0%). The “PASI ≥75% Improvement, subjects” value [8] was 3 (60.0%), the “PASI ≥90% Improvement, subjects” value [8] was 2 (40.0%) and the “PASI 100% Improvement, subjects” value [9] was 1 (20.0%). The “PASI ≥75% Improvement, subjects” value [9] was 3 (60.0%), the “PASI ≥90% Improvement, subjects” value [9] was 3 (60.0%) and the “Subjects achieving PASI 75” value (100 mg BID) was 23.8%. The “Subjects achieving PASI 100” value (100 mg BID, Week 8) was 11.9%, the “PASI 75 treatment difference vs placebo” value (100 mg BID, Week 16) was 69.4% and the “PASI 90 treatment difference vs placebo” value (100 mg BID, Week 16) was 57.3% (42.0%,. The “PASI 100 treatment difference vs placebo” value (100 mg BID, Week 16) was 40.5% (25.8%,, the “Subjects achieving PASI 90” value (100 mg BID, Week 16) was “(59.5%)” and the “PASI 75, %” value (100 mg BID, Week 16, N=42) was 78.6%. For the same compound, the “PASI 90, %” value (100 mg BID, Week 16, N=42) was 59.5%, the “PASI 100, %” value (100 mg BID, Week 16, N=42) was 40.5% and the “PASI 100% Improvement, % subjects” value [10] was “(50.0%)”. For the same compound, the “PASI 100% Improvement, n subjects” value [10] was 1, the “PASI ≥75% Improvement, n subjects” value [10] was 2 and the “PASI ≥90% Improvement, % subjects” value [10] was “(100.0%)”. The “PASI ≥90% Improvement, n subjects” value [10] was 2, the “PASI 100% Improvement, % subjects” value [11] was “(33.3%)” and the “PASI 100% Improvement, n subjects” value [11] was 1. The “PASI ≥75% Improvement, n subjects” value [11] was 3, the “PASI ≥90% Improvement, % subjects” value [11] was “(100.0%)” and the “PASI ≥90% Improvement, n subjects” value [11] was 3. The “PASI 100% Improvement, % subjects” value [12] was “(50.0%)”, the “PASI 100% Improvement, n subjects” value [12] was 1 and the “PASI ≥75% Improvement, n subjects” value [12] was 1. The “PASI ≥90% Improvement, % subjects” value [12] was “(50.0%)”, the “PASI ≥90% Improvement, n subjects” value [12] was 1 and the “PASI 100% Improvement, % subjects” value [13] was “(66.7%)”. For the same compound, the “PASI 100% Improvement, n subjects” value [13] was 2, the “PASI ≥75% Improvement, n subjects” value [13] was 3 and the “PASI ≥90% Improvement, % subjects” value [13] was “(66.7%)”. The “PASI ≥90% Improvement, n subjects” value [13] was 2, the “PASI 100% Improvement, subjects” value [14] was 1 (25.0%) and the “PASI ≥75% Improvement, subjects” value [14] was 3 (75.0%). The “PASI ≥90% Improvement, subjects” value [14] was 50.0%.
